Data: patent US8871753B2, “Macrocyclic compounds and their use as kinase inhibitors” (Incyte Corporation, priority 2008, dated 2014)
pIC50: −log10 of the molar value.

Assays:
Type in all cases: biochemical
TYK2 = TYK2 (Homo sapiens, UniProt P29597); assay: TYK2 kinase inhibition (Table A1); conditions: Table D1
[1] = target: T1, human JAK3 (a.a. 781-1124) (Homo sapiens, UniProt P52333); assay: In vitro JAK kinase assay (HTRF, phosphorylation of a biotinylated peptide), JAK3; conditions: Table D1
T1 construct: JAK3 (a.a. 781-1124); His tag (N); made in house; host or cells: insect cells (baculovirus)
T1 sequence (P52333 781-1124): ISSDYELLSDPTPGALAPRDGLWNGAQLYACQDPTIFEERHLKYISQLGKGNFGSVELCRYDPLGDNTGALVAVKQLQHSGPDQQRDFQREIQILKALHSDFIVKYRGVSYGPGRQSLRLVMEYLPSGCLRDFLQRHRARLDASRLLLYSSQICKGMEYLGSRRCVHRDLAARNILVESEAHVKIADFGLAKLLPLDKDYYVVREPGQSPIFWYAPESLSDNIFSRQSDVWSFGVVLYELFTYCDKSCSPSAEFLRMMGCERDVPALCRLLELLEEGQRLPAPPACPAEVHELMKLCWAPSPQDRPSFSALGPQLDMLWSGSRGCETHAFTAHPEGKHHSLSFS
Procedure, shortened: (§1)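 Kinase activity was measured as phosphorylation of a biotinylated peptide, with ATP at 90 μM for JAK1, 30 μM for JAK2 and 3 μM for JAK3. Reactions ran 1 hr at room temperature, were stopped with EDTA plus SA-APC and Eu-Py20, and were read by HTRF after 40 minutes of antibody binding.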

[2] = target: T2, human JAK1 (a.a. 837-1142) (Homo sapiens, UniProt P23458); assay: In vitro JAK kinase assay (HTRF, phosphorylation of a biotinylated peptide), JAK1; conditions: Table D1; read-out: JAK1 IC50
T2 construct: human JAK1 (a.a. 837-1142); His tag (N); made in house; host or cells: insect cells (baculovirus)
T2 sequence (P23458 849-1154): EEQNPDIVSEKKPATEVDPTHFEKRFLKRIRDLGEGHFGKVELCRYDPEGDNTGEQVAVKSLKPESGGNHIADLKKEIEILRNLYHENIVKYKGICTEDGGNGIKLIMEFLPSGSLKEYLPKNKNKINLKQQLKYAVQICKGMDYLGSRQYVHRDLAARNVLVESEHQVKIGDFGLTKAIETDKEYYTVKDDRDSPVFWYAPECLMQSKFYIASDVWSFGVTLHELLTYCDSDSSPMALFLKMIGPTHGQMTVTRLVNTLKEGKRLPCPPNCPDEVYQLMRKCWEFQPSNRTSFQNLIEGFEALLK
Procedure, shortened: as §1

[3] = target: T3, human JAK2 (a.a. 828-1132) (Homo sapiens, UniProt O60674); assay: In vitro JAK kinase assay (HTRF, phosphorylation of a biotinylated peptide), JAK2; conditions: Table D1
T3 construct: JAK2 (a.a. 828-1132); His tag (N); made in house; host or cells: insect cells (baculovirus)
T3 sequence (O60674 828-1132): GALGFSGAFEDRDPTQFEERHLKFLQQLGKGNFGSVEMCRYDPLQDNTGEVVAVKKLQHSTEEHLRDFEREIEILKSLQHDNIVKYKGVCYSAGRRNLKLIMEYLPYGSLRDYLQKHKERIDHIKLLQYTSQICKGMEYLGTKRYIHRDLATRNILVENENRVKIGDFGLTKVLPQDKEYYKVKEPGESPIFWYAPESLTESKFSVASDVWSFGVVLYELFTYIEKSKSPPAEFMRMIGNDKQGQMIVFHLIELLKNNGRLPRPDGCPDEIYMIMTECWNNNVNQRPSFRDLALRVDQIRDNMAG
Procedure, shortened: as §1

TYK2, sequence (P29597 whole entry): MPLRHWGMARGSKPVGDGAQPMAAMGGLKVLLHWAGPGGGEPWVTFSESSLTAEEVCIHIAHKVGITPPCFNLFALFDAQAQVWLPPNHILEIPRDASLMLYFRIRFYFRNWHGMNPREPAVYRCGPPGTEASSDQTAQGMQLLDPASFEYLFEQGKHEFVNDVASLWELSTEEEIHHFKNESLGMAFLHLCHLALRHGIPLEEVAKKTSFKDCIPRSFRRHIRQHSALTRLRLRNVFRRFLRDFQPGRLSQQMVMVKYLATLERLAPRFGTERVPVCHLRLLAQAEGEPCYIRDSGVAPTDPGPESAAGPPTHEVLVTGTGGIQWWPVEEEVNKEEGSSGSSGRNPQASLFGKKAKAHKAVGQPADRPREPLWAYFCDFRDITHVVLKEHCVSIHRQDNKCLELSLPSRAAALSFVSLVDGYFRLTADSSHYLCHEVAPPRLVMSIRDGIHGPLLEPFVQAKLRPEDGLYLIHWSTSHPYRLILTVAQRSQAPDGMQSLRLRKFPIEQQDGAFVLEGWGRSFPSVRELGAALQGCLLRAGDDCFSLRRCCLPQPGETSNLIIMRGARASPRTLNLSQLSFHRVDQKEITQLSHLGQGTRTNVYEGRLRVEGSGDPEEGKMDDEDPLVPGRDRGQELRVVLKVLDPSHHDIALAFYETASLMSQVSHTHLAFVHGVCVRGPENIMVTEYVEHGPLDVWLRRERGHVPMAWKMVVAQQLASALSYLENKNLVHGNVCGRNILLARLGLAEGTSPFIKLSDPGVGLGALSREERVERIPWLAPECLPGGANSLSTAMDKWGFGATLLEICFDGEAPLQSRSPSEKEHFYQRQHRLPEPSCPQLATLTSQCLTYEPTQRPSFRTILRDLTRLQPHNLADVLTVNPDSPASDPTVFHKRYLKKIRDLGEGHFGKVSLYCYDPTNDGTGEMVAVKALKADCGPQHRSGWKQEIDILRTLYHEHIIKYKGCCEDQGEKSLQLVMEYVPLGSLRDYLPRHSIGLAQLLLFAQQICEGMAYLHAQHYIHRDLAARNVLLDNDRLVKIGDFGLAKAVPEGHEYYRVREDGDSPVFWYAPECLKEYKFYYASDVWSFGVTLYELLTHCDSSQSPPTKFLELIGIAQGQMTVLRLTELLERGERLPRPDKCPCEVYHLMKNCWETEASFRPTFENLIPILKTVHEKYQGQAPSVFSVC

| SMILES | pIC50 (TYK2) | pIC50 [1] | pIC50 [2] | pIC50 [3] |
| --- | --- | --- | --- | --- |
| NC1CCN(c2ccc3cc2CCc2cccc(c2)Nc2ncc(Cl)c(n2)N3)C1 (centres unmarked) [Example D88, 1-[6-Chloro-2,4,8,22-tetraazatetracyclo[14.3.1.1(3,7).1(9,13)]docosa-1(20),3(22),4,6,9(21),10,12,16,18-nonaen-12-yl]pyrrolidin-3-amine tris(trifluoroacetate)] | 7.85 | 7.82 | 7.72 | 8.11 |
| O=C(Nc1ccc(C(F)(F)F)cc1)N1CCN(c2ccc3cc2CCc2cccc(c2)Nc2ncc(Cl)c(n2)N3)CC1 [Example D90, 4-[6-Chloro-2,4,8,22-tetraazatetracyclo[14.3.1.1(3,7).1(9,13)]docosa-1(20),3(22),4,6,9(21),10,12,16,18-nonaen-12-yl]-N-[4-(trifluoromethyl)phenyl]piperazine-1-carboxamide bis(trifluoroacetate)] | 7.15 | 6.97 | 6.90 | 7.64 |
| N#Cc1ccc(NC(=O)N2CCN(c3ccc4cc3CCc3cccc(c3)Nc3ncc(Cl)c(n3)N4)CC2)cc1 [Example D93, 4-[6-Chloro-2,4,8,22-tetraazatetracyclo[14.3.1.1(3,7).1(9,13)]docosa-1(20),3(22),4,6,9(21),10,12,16,18-nonaen-12-yl]-N-(4-cyanophenyl)piperazine-1-carboxamide bis(trifluoroacetate)] | 7.15 | 7.16 | 7.34 | 7.85 |

The next lines start with the values.

| pIC50 (TYK2) | pIC50 [1] | pIC50 [2] | pIC50 [3] | SMILES |
| --- | --- | --- | --- | --- |
| 7.52 | 7.47 | 7.74 | 8.48 | NC(=O)N1CCN(c2ccc3cc2CCc2cccc(c2)Nc2ncc(Cl)c(n2)N3)CC1 [Example D87, 4-[6-Chloro-2,4,8,22-tetraazatetracyclo[14.3.1.1(3,7).1(9,13)]docosa-1(20),3(22),4,6,9(21),10,12,16,18-nonaen-12-yl]piperazine-1-carboxamide bis(trifluoroacetate)] |
| 7.28 | 7.11 | 7.18 | 8.17 | N#Cc1cccc(NC(=O)N2CCN(c3ccc4cc3CCc3cccc(c3)Nc3ncc(Cl)c(n3)N4)CC2)c1 [Example D89, 4-[6-Chloro-2,4,8,22-tetraazatetracyclo[14.3.1.1(3,7).1(9,13)]docosa-1(20),3(22),4,6,9(21),10,12,16,18-nonaen-12-yl]-N-(3-cyanophenyl)piperazine-1-carboxamide bis(trifluoroacetate)] |
| 6.81 | 6.88 | 6.84 | 7.49 | O=C(Nc1cccc(C(F)(F)F)c1)N1CCN(c2ccc3cc2CCc2cccc(c2)Nc2ncc(Cl)c(n2)N3)CC1 [Example D91, 4-[6-Chloro-2,4,8,22-tetraazatetracyclo[14.3.1.1(3,7).1(9,13)]docosa-1(20),3(22),4,6,9(21),10,12,16,18-nonaen-12-yl]-N-[3-(trifluoromethyl)phenyl]piperazine-1-carboxamide bis(trifluoroacetate)] |
| 7.60 | 7.44 | 7.80 | 8.31 | O=C(Nc1ccccc1)N1CCN(c2ccc3cc2CCc2cccc(c2)Nc2ncc(Cl)c(n2)N3)CC1 [Example D92, 4-[6-Chloro-2,4,8,22-tetraazatetracyclo[14.3.1.1(3,7).1(9,13)]docosa-1(20),3(22),4,6,9(21),10,12,16,18-nonaen-12-yl]-N-phenylpiperazine-1-carboxamide bis(trifluoroacetate)] |
| 6.80 | 6.86 | 7.10 | 7.37 | O=C(c1ccccc1)N1CCN(c2ccc3cc2CCc2cccc(c2)Nc2ncc(Cl)c(n2)N3)CC1 [Example D94, 12-(4-Benzoylpiperazin-1-yl)-6-chloro-2,4,8,22-tetraazatetracyclo[14.3.1.1(3,7).1(9,13)]docosa-1(20),3(22),4,6,9(21),10,12,16,18-nonaene bis(trifluoroacetate)] |
